Laboratory results as given in patent US20120237937A1, “METHODS TO DETECT CANCER IN ANIMALS” (UNIVERSITY OF LOUISVILLE RESEARCH FOUNDATION, INC., priority 2009, published 2012).
Counter-ions that a name gives are not always drawn.

Assays:
[1] = GC-MS analysis of 13C-mass isotopomers of lactate in plasma after [U-13C]-glucose infusion; type: in vivo, human; settings: in excess of natural abundance
[2] = NMR 13C-isotopomer profiling of TCA extracts of paired non-cancerous and cancerous lung tissues; settings: for relative 13C abundance (HSQC peak volume normalized to total succinate concentration): patients #6-10; for % enrichment: human, in vivo
Experimental: Lung cancer patients were recruited based on the criteria of surgical eligibility and no history of diabetes. Each patient was consented in accordance with the U.S. HIPAA regulations. The following patient protocol was approved by the Internal Review Board at the University of Louisville. Ten grams uniformly ^13C labeled glucose ([U-^13C]-Glc or ^13C6-Glc or ^13C6-Glucose) in sterile saline solution were infused i.v. over a 30 min time period into each patient in the pre-op room approximately 3 or 12 hr prior to resection. Whole blood samples were collected into a vacutainer containing the anticoagulant K3EDTA or K3-EDTA before and after [U-^13C]-Glc infusion as well as after the surgery. Additional blood samples were collected 3 and 12 hr after the [U-^13C]-Glc infusion for the 12 hr treatment cases. […] The blood samples were placed on ice immediately after collection and centrifuged at 4° C. at 3,500×g for 15 min to recover the plasma fraction. All blood samples were aliquoted and flash-frozen in liquid N2 within 30 min of collection. Potassium EDTA was used as an anti-coagulant to minimize metabolic artifacts associated with anti-coagulation; it also served to remove the influence of interfering cations such as paramagnetic Fe^3+ and Cu^2+ for NMR analysis.
All timings from first incision to cutting arteries and veins to the lung were recorded so that the period of ischemia could be determined immediately after tissue resection, excess blood was blotted from the tissue, and small pieces of non-cancerous and tumor tissue were cut by the surgeon and freeze-clamped in liquid N2 within 5 minutes of removal from the chest cavity. The freezing process arrested metabolic changes almost instantaneously. […] Non-cancerous tissue was removed at least 2 cm from the tumor margin and certified to be tumor-free by trained pathologists. Subsequent pathological evaluation also confirmed tumor status and provided the tumor stage. All samples were stored at −80° C. until further processing for analysis.
Frozen tissue samples were pulverized into <10 μm particles in liquid N2 using a Spex freezer mill (Spex CertiPrep, Inc., Metuchen, N.J.) to maximize efficiency for subsequent extraction while maintaining biochemical integrity. An aliquot of the frozen powder was lyophilized before extraction for metabolites.
Water-soluble or polar metabolites were extracted from lyophilized tissue powders (4-48 mg) in ice-cold 10% trichloroacetic acid (TCA) (v/w minimum 40/1) while leaving proteins, nucleic acids, and polysaccharides behind, as described previously (Kim et al. Antioxidants & Redox Signaling 2001, 3:361-373). The extraction was performed twice for quantitative recovery. An aliquot (150 μl) of plasma samples were made to final 10% TCA concentration to precipitate proteins and recover metabolites in the supernatant. TCA was then removed from tissue or plasma extracts by lyophilization. The dry pellet was dissolved in nanopure water and two small aliquots were lyophilized for silylation and GC-MS analysis while the remaining bulk was passed through a Chelex 100 resin column (Bio-Rad Laboratories, Inc., Hercules, Calif.) to neutralize and remove interfering multivalent cations for NMR analysis.
The ^1H reference standard, DSS (2,2-Dimethyl-2-silapentane-5-sulfonate sodium salt) was added (30 or 50 nmoles) to the TCA extracts of tissue or plasma samples, respectively. […]

[3] = GC-MS quantification of total and 13C-enriched metabolites in paired normal and cancerous lung tissues
[4] = Isotopic enrichment in SCID mouse tissue lactate and glucose by 1D 1H NMR; type: in vivo; settings: SCID, mouse, in vivo, 15 min
Experimental: A 20% solution of glucose in normal saline was sterile-filtered. 100 μL of this solution, or a 1:10 dilution (2%) were injected into the tail vein of a restrained mouse without anesthesia.
Mice were sacrificed at different times post glucose injection, and the following organs were dissected sequentially: lung, heart, liver, kidney, brain, spleen, and thigh muscle. Dissected tissue was flash frozen in liquid N2 within 1 minute of killing the animal.
Frozen tissues were ground in liquid N2 to <10 μm particles in a 6750 Freezer/Mill (Retsch, Inc., Newtown, Pa.) and extracted for soluble and lipidic metabolites as follows. Up to 20 mg of frozen tissue powder in 15 ml polypropylene conical centrifuge tube (Sarstedt, Newton, N.C.) containing 3 mm diameter glass beads was vigorously mixed with 2 ml of cold acetonitrile (mass spectrometry grade, stored at −20° C.) to denature proteins, followed by addition of 1.5 ml nanopure water, and 1 ml HPLC-grade chloroform (Fisher Scientific). The mixture was shaken vigorously until achieving a milky consistency followed by centrifugation at 3,000 g for 20 minutes at 4° C. to separate the polar (top), lipidic (bottom), and tissue debris layers (interface). The polar and lipidic layers were recovered sequentially and the remaining cell debris was extracted again with 0.5 ml chloroform:methanol:butylated hydroxytoluene (BHT) (2:1:1 mM) which was pooled with the lipidic fraction. All three fractions were vacuum-dried in a speedvac device (Vacufuge, Eppendorf, New York, N.Y.) and/or by lyophylization. The dry weight of tissue debris was obtained for normalization of metabolite content. The polar extracts were redissolved in 100% D2O containing 30 nmol perdeuterated DSS (2,2-dimethyl-2-silapentane-5-sulfonate, Cambridge Isotope Laboratories, Andover, Mass.) as internal chemical shift and concentration reference for NMR measurement.
NMR spectra were recorded at 14.1 T on a Varian Inova spectrometer equipped with a 5 mm inverse triple resonance cold probe, at 20° C. 1D NMR spectra were recorded with an acquisition time of 2 s and a recycle time of 5 sec. Concentrations of metabolites and ^13C incorporation were determined by peak integration of the ^1H NMR spectra referenced to the DSS methyl groups, with correction for differential relaxation, as previously described (See, Lane et al. (2008) Biophysical Tools for Biologists. 84: 541-588; Fan et al. (2008) Progress in NMR Spectroscopy 52: 69-117; Lane et al. (2007) Metabolomics 3: 79-86.). ^1H Spectra were typically processed with zero filling to 131 k points, and apodized with an unshifted Gaussian and a 0.5 Hz line broadening exponential.
The same extracts from FIG. 9 were analyzed by NMR to complement the GC-MS analysis. The ^13C enrichment into glucose/glucose-6-phosphate and lactate was determined by 1D ^1H NMR. The enrichments at 15 and 30 minutes post infusion were substantial in all tissues, and peak lactate enrichments differed according to the metabolic activity or glucose uptake rates of the different tissues (Table 7).
Lac measured at C3, G1c measured at C1α by NMR

[5] = patient #6 (sqC, grade II), cancer tissue
[6] = patient #6 (sqC, grade II), normal tissue
[7] = patient #7 (adenoC, grade II), cancer tissue
[8] = patient #7 (adenoC, grade II), normal tissue
[9] = patient #8 (sqC, grade II-III), cancer tissue
[10] = patient #8 (sqC, grade II-III), normal tissue
[11] = patient #9 (sqC, grade II), cancer tissue
[12] = patient #9 (sqC, grade II), normal tissue
[13] = patient #10 (sqC, grade III), cancer tissue
[14] = patient #10 (sqC, grade III), normal tissue

Row | SMILES | Percentage distribution of 13C-mass isotopomers of lactate in plasma ([1]; patient #6, [U-13C]-glucose 3 h) [%] | Percentage distribution of 13C-mass isotopomers of lactate in plasma ([1]; patient #7, [U-13C]-glucose 3 h) [%] | Percentage distribution of 13C-mass isotopomers of lactate in plasma ([1]; patient #8, [U-13C]-glucose 3 h) [%] | Percentage distribution of 13C-mass isotopomers of lactate in plasma ([1]; patient #9, [U-13C]-glucose 3 h) [%] | Percentage distribution of 13C-mass isotopomers of lactate in plasma ([1]; patient #10, [U-13C]-glucose 3 h) [%] | relative 13C abundance (HSQC peak volume normalized to total succinate concentration) ([2]; non-cancerous tissues) | relative 13C abundance (HSQC peak volume normalized to total succinate concentration) ([2]; tumor tissues) | metabolite content of lung tissue [3, 5] [μmole/g dry weight] | metabolite content of lung tissue [3, 6] [μmole/g dry weight] | metabolite content of lung tissue [3, 7] [μmole/g dry weight] | metabolite content of lung tissue [3, 8] [μmole/g dry weight] | metabolite content of lung tissue [3, 9] [μmole/g dry weight] | metabolite content of lung tissue [3, 10] [μmole/g dry weight] | metabolite content of lung tissue [3, 11] [μmole/g dry weight] | metabolite content of lung tissue [3, 12] [μmole/g dry weight] | metabolite content of lung tissue [3, 13] [μmole/g dry weight] | metabolite content of lung tissue [3, 14] [μmole/g dry weight] | % enrichment [2] [%] | % 13C isotopic enrichment in tissue [4] [%]
1 | [13CH3][13CH](O)[13C](=O)O (stereo not shown) [[U-^13C]-Lactate, uniformly ^13C labeled lactate] | 1.89 | 4.84 | 3.31 | 3.47 | 6.37 | – | – | – | – | – | – | – | – | – | – | – | – | – | –
2 | O=C(O)[13CH2][13CH2]C(=O)O [C-2,3-succinate] | – | – | – | – | – | 0.6±0.7 | 3.6±1.2 | – | – | – | – | – | – | – | – | – | – | – | –
3 | NC(=O)CC[C@H](N)C(=O)O [Total Gln, glutamine] | – | – | – | – | – | – | – | 7.68 | 0.56 | 1.02 | 1.41 | 1.32 | 0.64 | 2.71 | 0.74 | 2.99 | 0.79 | – | –
4 | N[C@@H](CC(=O)O)C(=O)O [Total Asp, aspartate] | – | – | – | – | – | – | – | 4.27 | 1.32 | 3.09 | 3.83 | 1.51 | 2.67 | 4.78 | 1.94 | 1.66 | 2.27 | < 8 | –
5 | O=C(O)CC(O)(CC(=O)O)C(=O)O [Total Cit, citrate] | – | – | – | – | – | – | – | 1.32 | 0.60 | 1.18 | 1.21 | 1.56 | 1.28 | 1.53 | 0.77 | 1.37 | 0.74 | – | –
6 | N[C@@H](CCC(=O)O)C(=O)O [Total Glu, glutamate] | – | – | – | – | – | – | – | 4.80 | 0.24 | 2.97 | 2.96 | 3.25 | 1.88 | 4.78 | 1.91 | 3.28 | 1.82 | – | –
7 | O=C(O)CCC(=O)O [Total Succ, succinate] | – | – | – | – | – | – | – | 1.34 | 0.17 | 0.70 | 0.50 | 1.84 | 0.89 | 1.59 | 0.64 | 3.13 | 1.14 | – | –
8 | C[C@H](N)C(=O)O [Total Ala, alanine] | – | – | – | – | – | – | – | 15.76 | 4.67 | 6.44 | 6.25 | 9.28 | 4.97 | 15.08 | 5.14 | 27.34 | 5.42 | ≤ 15 | 16
